Data on 1 compound can be found in patent US20250059196A1 (SHANGHAI HANSOH BIOMEDICAL CO., LTD., priority 2021, published 2025).

Each structure is given as a SMILES string.

The target in data set [1] is MALT1 protease activity in TMD8 cells (substrate BCL-10) (Homo sapiens (Human), UniProt Q9UDY8). As to the kind of experiment: Intracellular MALT1 protease activity detection (BCL-10 ELISA in TMD8 cells). The data set is classed as cell-based. Particulars: undigested BCL-10 by ELISA, 30 min compound then 2 h stimulation cocktail, read-out: Bcl10 TMD8 IC50. The protocol: By detecting the digestion level of the substrate BCL-10 by MALT1 in TMD8 cells, the inhibitory effect of the compound on MALT1 protease activity in the cellular environment was tested.
The ELISA sandwich method was used to detect the content of undigested BCL-10 protein in cells and determine the inhibitory effect of compounds on intracellular MALT1 protease activity. The highest concentration of the compound detected was 10000 nM, 3-fold dilution, a total of 9 concentrations (10000 nM-1.5 nM). Cells were plated at an appropriate density. Compounds of corresponding concentrations were first added for action for 30 min, and then eBioscience cell stimulation cocktail was added to stimulate the cells for 2 h. Cell lysate was then collected. The cell lysate was added to the assay plate previously coated with recombinant BCL-10 antibody (Abcam, #Ab33905) and incubated at 4° C. overnight. The next day, BCL-10 detection antibody (Santacruz, #Sc-5273HRP) was added and incubated for 2 h, TMB substrate was used for color development for about 30 min, then the color development was terminated, and a microplate reader was used for detection.
2) Curve fitting: Log(inhibitor) vs. response—Variable slope (four parameters) in GraphPad Prism 6 was used to perform fitting equation analysis on compound concentration and corresponding inhibition rate, the curve was fit and compound IC50 value was obtained.
(§1) The fitting calculation equation is Y=Bottom+(Top−Bottom)/(1+10^((Log IC50−X)*HillSlope))

Data set [2] deals with OCI-LY3 cell subcutaneous xenograft tumor. As to the kind of experiment: Tumor inhibition in OCI-LY3 subcutaneous xenograft NOG mouse model of human diffuse large B-cell lymphoma. The data set is classed as in vivo. The conditions noted are these: NOG mice, 30 mg, BID × 4 weeks, oral. The protocol: The efficacy of test drugs was evaluated in OCI-LY3 mouse subcutaneous tumor model of human diffuse large B-cell lymphoma
• 1. Animal: NOG mice, female, 6-8 weeks old, weighing 18-22 grams, a total of 65 mice were needed. Provided by Beijing Vital River Laboratory Animal Technology Co., Ltd. or other qualified suppliers. • 2. Cell: Human diffuse large B-cell lymphoma OCI-LY3 cells were cultured in vitro as monolayers and conventional digestion treatment with trypsin-EDTA was carried out twice a week for passage. When the cell confluence was 80%-90% and the number reached the required number, cells were collected, counted, and inoculated. • 3. Grouping for vaccination: Cells (5×10^6 cells+Matrigel/0.2 ml) were inoculated subcutaneously into each mouse. The growth of animals and transplanted tumors were observed regularly. When the tumor grew to a volume of about 150-200 mm^3, the tumor volume of each mouse was calculated, and the mice were divided into random groups according to tumor volume and body weight. The calculation formula of tumor volume was V=0.5a×b^2, wherein a and b represented the long and short diameters of the tumor, respectively. • 4. Administration: According to the grouping results, the test drug was started to be administered (administration method: oral administration; Administration volume: 10 mL/kg; Administration frequency: 2 times/day; Administration cycle: 28 days; Vehicle: 10% solutol HS15-0.25% CMC-Na). Tumors were measured and weighed twice a week after starting administration of test drugs. • 5. Animals were euthanized after the experiment. • 6. Data processing: The tumor inhibitory efficacy of the compound was evaluated by TGI (%) or relative tumor proliferation rate T/C (%). TGI (%) reflects the tumor growth inhibition rate. Calculation of TGI (%): TGI (%)=[(1−(average tumor volume at the end of administration in a treatment group−average tumor volume at the beginning of administration in the treatment group))/(average tumor volume at the end of administration in the solvent control group−average tumor volume at the beginning of administration in the solvent control group)]×100%.
Relative tumor proliferation rate T/C (%): The calculation formulas are as follows: T/C %=TRTV/CRTV×100% (TRTV: RTV of treatment group; CRTV: RTV of negative control group). The relative tumor volume (RTV) was calculated based on the results of tumor measurement. The calculation formula is RTV=Vt/V0, where V0 is the average tumor volume measured at grouping for administration (i.e. d0), Vt is the average tumor volume at a certain measurement, and TRTV and CRTV take the data on the same day.
After the experiment, the tumor weight was measured, and the T/Cweight percentage was calculated. Tweight and Cweight represented the tumor weight of the administration group and the vehicle control group, respectively.
Remarks: The data in parentheses indicate the tumor volume corresponding to the vehicle group (i.e., the control group) at the corresponding time in this example.

Data set [3] can be described thus: Pharmacokinetics of oral administration in Balb/C mice. The data set is classed as in vivo. Particulars: 30 mg/kg, P.O., plasma. The protocol: Balb/C mice were used as test animals to study the pharmacokinetic behavior of the compound in the plasma of mice after oral administration at a dose of 30 mg/kg.
3 Balb/C mice (3/example), male, from Shanghai Jiesijie Experimental Animal Co., Ltd., animal production license number (SCXK (Shanghai) 2013-0006 N0.311620400001794).
3 Balb/C mice, male; p.o. respectively at a dose of 30 mg/kg and an administration volume of 10 mL/kg after the mice were fasted overnight.
Before and after administration of mice, 0.1 mL of blood was collected from the orbit at 0, 0.5, 1, 2, 4, 6, 8 and 24 h, and placed in EDTA-K2 test tubes, which was centrifuged at 6000 rpm at 4° C. for 6 min to separate plasma which was stored at −80° C.
• 1) 160 μL of acetonitrile was added to 40 μL of plasma sample for precipitation, and same was mixed and centrifuged at 3500×g for 5 to 20 min. • 2) 100 μL of the treated supernatant solution was taken and subjected to LC/MS/MS to analyze the concentrations of the test compounds.
• Liquid phase conditions: Shimadzu LC-20AD pump • Mass spectrometry conditions: AB Sciex API 4000 mass spectrometer • Chromatographic column: Phenomenex Gemiu 5 um C18 50×4.6 mm • Mobile phase: liquid A is 0.1% aqueous formic acid solution, liquid B is acetonitrile • flow rate: 0.8 mL/min • Elution time: 0-4.0 min, the eluent is as follows:
The main pharmacokinetic parameters were calculated using WinNonlin 8.2.

The next data set deals with Caco-2 cells. Briefly: Caco-2 bidirectional permeability test.
The subject of a further data set is OCI-Ly3 cells. Briefly: Inhibition of proliferation of OCI-Ly3 cells (CellTiter-Glo). Particulars: 96 h incubation, read-out: Inhibition test of proliferation of OCI-Ly3 cells IC50. The data set is classed as cell-based, human. The protocol:
The compound's inhibitory effect on the proliferation of TMD8 and OCI-Ly3 cells was evaluated through cell proliferation inhibition experiments.
The compound's inhibitory effect on the proliferation of TMD8 and OCI-Ly3 cells was detected by the CellTiter-Glo method. The highest concentration of the compound detected was 1000 nM, 3-fold dilution, a total of 9 concentrations (1000 nM-0.15 nM). After the cells were plated at an appropriate density, compounds were added the next day and incubated for 96 h before detection using the CellTiter-Glo Luminescent detection kit.
(§2) Log(inhibitor) vs. response—Variable slope (four parameters) in GraphPad Prism 6 was used to perform fitting equation analysis on compound concentration and corresponding inhibition rate, the curve was fit and compound IC50 value was obtained.
as §1
For orientation: ATP-based viability assays read luminescence as a measure of living cells.

For data set [4], the target named is Recombinant human MALT1/MLT protein (Homo sapiens (Human), UniProt Q9UDY8). Briefly: Inhibitory effect on MALT1 enzyme activity (Ac-LRSR-AMC substrate, fluorescence 460 nm). The data set is classed as biochemical. The conditions noted are these: 10 nM FL MALT1, Ac-LRSR-AMC substrate, 50 min pre-incubation, 4 h reaction. The protocol:
Ac-LRSR-AMC was used as the substrate to test the IC50 of the inhibitory activity of compounds on MALT1 enzyme activity at their Km concentration.
Ac-LRSR-AMC was used as the substrate which was digested by MALT1 to produce products, which produced fluorescence that could be detected at 460 nm. The highest concentration of the compound detected was 1000 nM, 3-fold dilution, a total of 11 concentrations (1000 nM-0.017 nM). The reaction system is 10 nM FL MALT1 protein, […] Ac-LRSR-AMC, 50 mM Tris pH 7.5, 0.6M Citrate, 1 mM DTT, 1 mM EDTA, 0.05% BSA and 1.5% DMSO. The compound and the enzyme were pre-incubated at room temperature for 50 min. The substrate was then added and the reaction was carried out for 4 h.
The original data (460 nm reading) was calculated according to the following formula to obtain the inhibition rate.
as §2, §1

Chain of Recombinant human MALT1/MLT protein (Q9UDY8 whole entry): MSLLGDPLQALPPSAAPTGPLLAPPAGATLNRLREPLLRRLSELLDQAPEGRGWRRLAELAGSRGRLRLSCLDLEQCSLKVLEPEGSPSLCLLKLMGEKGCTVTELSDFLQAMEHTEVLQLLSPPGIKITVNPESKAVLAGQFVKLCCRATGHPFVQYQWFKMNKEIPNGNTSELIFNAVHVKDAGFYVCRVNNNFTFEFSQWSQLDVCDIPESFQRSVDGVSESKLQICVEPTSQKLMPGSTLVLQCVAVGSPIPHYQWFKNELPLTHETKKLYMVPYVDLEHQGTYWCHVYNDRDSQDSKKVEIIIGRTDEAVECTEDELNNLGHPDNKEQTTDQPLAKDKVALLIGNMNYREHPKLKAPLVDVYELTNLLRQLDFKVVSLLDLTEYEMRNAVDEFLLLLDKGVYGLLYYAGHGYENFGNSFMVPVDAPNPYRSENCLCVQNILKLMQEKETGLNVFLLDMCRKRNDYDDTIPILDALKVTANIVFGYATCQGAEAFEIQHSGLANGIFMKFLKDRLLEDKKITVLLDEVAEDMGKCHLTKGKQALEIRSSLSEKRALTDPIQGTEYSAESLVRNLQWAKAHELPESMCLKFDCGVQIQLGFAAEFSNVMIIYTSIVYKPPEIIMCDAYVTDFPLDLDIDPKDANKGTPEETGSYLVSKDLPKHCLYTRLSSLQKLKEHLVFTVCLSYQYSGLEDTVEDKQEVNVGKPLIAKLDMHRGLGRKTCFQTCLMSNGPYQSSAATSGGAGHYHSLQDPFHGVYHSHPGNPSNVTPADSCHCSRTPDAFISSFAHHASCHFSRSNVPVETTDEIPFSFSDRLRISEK
Chain of MALT1 protease activity in TMD8 cells (substrate BCL-10) (Q9UDY8 whole entry): as above
Experimental for Caco-2 cells: The purpose of this experiment is to test the bidirectional permeability of the compound through the Caco-2 cell model and evaluate whether the compound is transported by efflux transporters.
Liquid chromatography-mass spectrometer, centrifuge, vortexer, pipette, 96-well test plate (HTS Transwell Plate), acetonitrile solution containing internal standard, Caco-2 cells (ATCC), Hank's balance solution (HBSS), fluorescent yellow (LY), dimethyl sulfoxide (DMSO).
108 μL of transport buffer (HBSS containing 10 μM of the example compound) was added to the administration end of A to B. • b. 300 μL of transport buffer (HBSS containing DMSO) was added to the receiving end of A to B. • c. 300 μL of transport buffer (HBSS containing 10 μM example compound) was added to the administration end of A to B. • d. 108 μL of transport buffer (HBSS containing DMSO) was added to the receiving end of A to B. • e. incubation was performed for 90 min. • d. a sample was taken, processed and detected with mass spectrometry.
• Instruments: Liquid Chromatography; • Chromatographic column: Waters XSelect HSS T3 2.5 μm (2.1×50 mm); • Mobile phase: Phase A: 0.1% formic acid in pure water; Phase B: 0.1% formic acid in acetonitrile.
• Instruments: AP16500+liquid chromatography-mass spectrometer; • The ion source is electrospray ionization source (ESI); • The detection method is positive ion detection;
The scanning method is selected reaction monitoring (MRM).

What is called MRT is a mean duration of stay, worked out from the concentration-time curve. Regarding `O=C(Nc1ccnc(C(F)(F)F)c1)c1cnn(-c2ccc3c4c(cccc24)C(=O)N3)c1C(F)(F)F` [Example 27], the IC50 in data set [1] stood at 51 nM. Further, in data set [2], the “TGI (%) Day 28” value is reported as 93.04%, the “Weight Day 28” value was determined as 20.34 ± 0.78 and the “ΔT/ΔC(%) Day 28” value is on record as 19.83%. Further, the “Tumor volume (Mean ± SD) Day 28” value in data set [2] (vehicle group 1274 ± 82) is listed as 230 ± 50 (1274 ± 82) mm^3. For the same compound, in data set [3], the “AUC0-∞” value was 1,584,433 ng/mL*hr, the “AUC(0-t)” value is 1,130,746 ng/mL*h, the Cmax is 71,267 ng/mL and the MRT was determined as 18.7 h. The same compound gave a T1/2 in data set [3] of 13.1 h. For the same compound, the “Papp A − B” value in the data set with Caco-2 cells (Caco-2, 10 μM, 90 min, A to B) is reported as 4.21 10^−6 cm · s^−1. Further, the “Papp B − A” value in the data set with Caco-2 cells (Caco-2, 10 μM, 90 min, B to A) is given as 11.52 10^−6 cm · s^−1. In the data set with Caco-2 cells (Caco-2 efflux ratio), the “Papp(B − A)/Papp(A − B)” value was 2.74. For the same compound, the IC50 in the data set on OCI-Ly3 cells is 804 nM. Besides, the IC50 in data set [4] turned out to be 162 nM.
